# In patent US9238796B2, “Cell growth-promoting peptide and use thereof” (TOAGOSEI CO., LTD., priority 2010, dated 2016):
# No end group written: not given here.
# Experiments:
# [1] = test system: Rat bone marrow-derived stem cells (mesenchymal stem cells); test: Evaluation of cell growth-promoting activity, WST-8 colorimetric method (Example 5); format: cell-based; conditions: WST-8 absorbance at 450 nm, peptide approximately 2 μM, bFGF 10 ng/mL; for OD450 at the start of cultivation: day 0; for OD450 after 4 days: day 4
# Protocol: (§1) Experimental sections were set up that used the cell growth-promoting peptides obtained in Example 4 (samples 22 to 42) as a cell growth promoter and that used a commercially available bFGF as a cell growth promoter as a comparative example. For the control, a peptide-free section (the bFGF was also not added) was set up.
# (§2) The details of the evaluation testing are provided below. Each synthesized sample peptide was dissolved in PBS (phosphate-buffered physiological saline) to prepare a stock solution with a peptide concentration of 1 mM.
# (§3) Rat bone marrow-derived stem cells (mesenchymal stem cells) were used as the test cells. Specifically, the test stem cells were cultured by passage on Dulbecco's MEM medium (DMEM medium: Gibco product) containing 10% fetal bovine serum (FBS: Gibco product), 2 mM of L-glutamine, 50 unit/mL of penicillin, and 50 μg/mL of streptomycin. From the second passage to the fourth passage (passages 2 to 4) were used in this evaluation testing.
# (§4) Thus, the test stem cells were preliminarily recovered by treatment with a 0.05% trypsin-0.53 mM EDTA solution; a test stem cell solution, prepared with the DMEM medium containing 10 ng/mL of bFGF to provide 1×10^4 cells/mL, was seeded to each well of a 96-well plate to provide a cell count of 1×10^3 per well; and pre-cultivation was carried out overnight. The amount of medium was brought to 100 μL per well for this.
# (§5) The medium in each well was then exchanged for fresh medium to which a stock solution of a peptide selected from sample 22 to 42 had been added, so as to give a concentration of the peptide in each well of approximately 2 μM. For comparison, in some wells the medium in the well was exchanged for fresh medium to which a commercially available bFGF (product of PeproTech) had been added to give a concentration of 10 ng/mL (the bFGF experimental section in Table 6).
# (§6) After the addition of the sample peptide or bFGF as indicated above, the 96-well plate was placed in a CO2 incubator and cultivation at quiescence was carried out at 37° C. under 5% CO2. Medium exchange was performed every other day. The exchange medium was the same as that used at the start of cultivation (i.e., the same sample peptide or bFGF was also added to the exchange medium as in the sample peptide addition section or bFGF addition section).
# During this cultivation test, a “water-soluble tetrazolium salt (WST-8)” was added as a chromogenic reagent to some wells at the start of cultivation (day 0) and at four days after the start of cultivation (day 4). After incubation for 2 hours after the addition, the cell culture fluid to which the chromogenic reagent had been added was recovered. The extent of cell growth was evaluated by a colorimetric method in which, based on reduction of the tetrazolium salt, the absorbance (OD450) at a wavelength of 450 nm was measured.
# [2] = test system: Rat bone marrow-derived stem cells (mesenchymal stem cells); test: Evaluation of cell growth-promoting activity, WST-8 colorimetric method (Example 2); format: cell-based; conditions: WST-8 absorbance at 450 nm, peptide approximately 2 μM, bFGF 10 ng/mL; for OD450 at the start of cultivation: day 0; for OD450 after 2 days: day 2; for OD450 after 4 days: day 4
# Protocol: as §1, with “1” for “4”, “1” for “22”, “21)” for “42)”
# as §2, §3, §4
# as §5, with “1” for “22”, “21” for “42”, “3).” for “6).”
# as §6
# During this cultivation test, a “water-soluble tetrazolium salt (WST-8)” was added as a chromogenic reagent to some wells at the start of cultivation (day 0), at two days after the start of cultivation (day 2), and at four days after the start of cultivation (day 4). After incubation for 2 hours after the addition, the cell culture fluid to which the chromogenic reagent had been added was recovered. The extent of cell growth was evaluated by a colorimetric method in which, based on reduction of the tetrazolium salt, the absorbance (OD450) at a wavelength of 450 nm was measured.
Sequence,OD450 at the start of cultivation [1],OD450 after 4 days [1],OD450 at the start of cultivation [2],OD450 after 2 days [2],OD450 after 4 days [2]
MLPGLALLLLAAGKKRTLRKNDRKKR (MLPGLALLLLAAGKKRTLRKNDRKKR-NH2) [sample 37],0.051,0.571,,,
MLPGLALLGKKRTLRKNDRKKR (MLPGLALLGKKRTLRKNDRKKR-NH2) [compound 41],0.051,0.311,,,
MLPSLALLLLAAWTVRAGKKRTLRKNDRKKR (MLPSLALLLLAAWTVRAGKKRTLRKNDRKKR-NH2) [sample 1],,,0.058,0.132,0.243
LALLLLAAWTARAGKKRTLRKNDRKKR (LALLLLAAWTARAGKKRTLRKNDRKKR-NH2) [compound 25],0.051,0.319,,,
MLPGLALLLLAAWGKKRTLRKNDRKKR (MLPGLALLLLAAWGKKRTLRKNDRKKR-NH2) [compound 36],0.051,0.288,,,
MLPGLALGKKRTLRKNDRKKR (MLPGLALGKKRTLRKNDRKKR-NH2) [compound 42],0.051,0.346,,,
MLPGLALLLLGKKRTLRKNDRKKR (MLPGLALLLLGKKRTLRKNDRKKR-NH2) [sample 39],0.051,0.538,,,
MLPSLALLLLAAWTVGKKRTLRKNDRKKR (MLPSLALLLLAAWTVGKKRTLRKNDRKKR-NH2) [compound 13],,,0.058,0.123,0.232
ALLLLAAWTVRAGKKRTLRKNDRKKR (ALLLLAAWTVRAGKKRTLRKNDRKKR-NH2) [compound 5],,,0.058,0.189,0.483
PGLALLLLAAWTARAGKKRTLRKNDRKKR (PGLALLLLAAWTARAGKKRTLRKNDRKKR-NH2) [compound 23],0.051,0.391,,,
MLPSLALLLLAAGKKRTLRKNDRKKR (MLPSLALLLLAAGKKRTLRKNDRKKR-NH2) [compound 16],,,0.058,0.172,0.525
MLPGLALLLLAAWTAGKKRTLRKNDRKKR (MLPGLALLLLAAWTAGKKRTLRKNDRKKR-NH2) [compound 34],0.051,0.243,,,
LLLLAAWTARAGKKRTLRKNDRKKR (LLLLAAWTARAGKKRTLRKNDRKKR-NH2) [compound 27],0.051,0.511,,,
LLAAWTVRAGKKRTLRKNDRKKR (LLAAWTVRAGKKRTLRKNDRKKR-NH2) [compound 8],,,0.058,0.168,0.418
MLPSLALLLLAAWGKKRTLRKNDRKKR (MLPSLALLLLAAWGKKRTLRKNDRKKR-NH2) [compound 15],,,0.058,0.133,0.276
MLPSLALLLLGKKRTLRKNDRKKR (MLPSLALLLLGKKRTLRKNDRKKR-NH2) [compound 18],,,0.058,0.184,0.505
MLPGLALLLLAGKKRTLRKNDRKKR (MLPGLALLLLAGKKRTLRKNDRKKR-NH2) [compound 38],0.051,0.491,,,
AWTARAGKKRTLRKNDRKKR (AWTARAGKKRTLRKNDRKKR-NH2) [compound 32],0.051,0.433,,,
WTARAGKKRTLRKNDRKKR (WTARAGKKRTLRKNDRKKR-NH2) [compound 33],0.051,0.407,,,

Sequence,OD450 at the start of cultivation [1],OD450 after 4 days [1],OD450 at the start of cultivation [2],OD450 after 2 days [2],OD450 after 4 days [2]
MLPSLALLLLAAWTGKKRTLRKNDRKKR (MLPSLALLLLAAWTGKKRTLRKNDRKKR-NH2) [compound 14],,,0.058,0.132,0.293
AAWTARAGKKRTLRKNDRKKR (AAWTARAGKKRTLRKNDRKKR-NH2) [compound 31],0.051,0.401,,,
LALLLLAAWTVRAGKKRTLRKNDRKKR (LALLLLAAWTVRAGKKRTLRKNDRKKR-NH2) [compound 4],,,0.058,0.136,0.304
AAWTVRAGKKRTLRKNDRKKR (AAWTVRAGKKRTLRKNDRKKR-NH2) [compound 10],,,0.058,0.149,0.389
WTVRAGKKRTLRKNDRKKR (WTVRAGKKRTLRKNDRKKR-NH2) [compound 12],,,0.058,0.181,0.388
SLALLLLAAWTVRAGKKRTLRKNDRKKR (SLALLLLAAWTVRAGKKRTLRKNDRKKR-NH2) [sample 3],,,0.058,0.139,0.293
MLPSLALLLGKKRTLRKNDRKKR (MLPSLALLLGKKRTLRKNDRKKR-NH2) [compound 19],,,0.058,0.163,0.478
MLPSLALGKKRTLRKNDRKKR (MLPSLALGKKRTLRKNDRKKR-NH2) [compound 21],,,0.058,0.155,0.332
PSLALLLLAAWTVRAGKKRTLRKNDRKKR (PSLALLLLAAWTVRAGKKRTLRKNDRKKR-NH2) [sample 2],,,0.058,0.136,0.297
LAAWTARAGKKRTLRKNDRKKR (LAAWTARAGKKRTLRKNDRKKR-NH2) [compound 30],0.051,0.413,,,
LLLAAWTARAGKKRTLRKNDRKKR (LLLAAWTARAGKKRTLRKNDRKKR-NH2) [compound 28],0.051,0.532,,,
LLLAAWTVRAGKKRTLRKNDRKKR (LLLAAWTVRAGKKRTLRKNDRKKR-NH2) [compound 7],,,0.058,0.176,0.499
GLALLLLAAWTARAGKKRTLRKNDRKKR (GLALLLLAAWTARAGKKRTLRKNDRKKR-NH2) [compound 24],0.051,0.327,,,
LAAWTVRAGKKRTLRKNDRKKR (LAAWTVRAGKKRTLRKNDRKKR-NH2) [compound 9],,,0.058,0.179,0.398
LLLLAAWTVRAGKKRTLRKNDRKKR (LLLLAAWTVRAGKKRTLRKNDRKKR-NH2) [compound 6],,,0.058,0.186,0.483
MLPSLALLGKKRTLRKNDRKKR (MLPSLALLGKKRTLRKNDRKKR-NH2) [compound 20],,,0.058,0.158,0.320
MLPSLALLLLAGKKRTLRKNDRKKR (MLPSLALLLLAGKKRTLRKNDRKKR-NH2) [compound 17],,,0.058,0.176,0.468
AWTVRAGKKRTLRKNDRKKR (AWTVRAGKKRTLRKNDRKKR-NH2) [compound 11],,,0.058,0.169,0.403
